Where a name gives a salt, the structure may show the parent alone.

In this experiment the target is T1, recombinant human arginase 1 (Homo sapiens, UniProt P05089).
T1 sequence (P05089 1-322): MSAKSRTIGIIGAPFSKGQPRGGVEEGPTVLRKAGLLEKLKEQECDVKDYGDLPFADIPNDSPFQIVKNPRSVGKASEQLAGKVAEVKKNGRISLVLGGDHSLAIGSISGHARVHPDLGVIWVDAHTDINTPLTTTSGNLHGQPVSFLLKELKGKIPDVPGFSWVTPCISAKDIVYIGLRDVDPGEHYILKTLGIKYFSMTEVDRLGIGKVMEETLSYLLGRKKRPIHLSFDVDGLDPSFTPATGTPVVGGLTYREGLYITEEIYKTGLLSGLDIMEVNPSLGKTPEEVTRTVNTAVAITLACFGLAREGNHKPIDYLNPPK
The experiment can be described thus: Arginase inhibitory activity test, enzymatic assay based on urea measurement (Arg 1).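 Further: enzyme incubated with L-arginine substrate and compound at 37 °C for 120 min, urea product detected colorimetrically by absorbance at 450 nm, background from wells lacking enzyme.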
Description: An enzymatic assay with recombinant human arginases 1 or 2 was used to measure inhibitory activity of the compounds. The assay is based on urea measurement, which is a product of L-arginine enzymatic degradation.
Briefly, arginase and the substrate solution containing L-arginine were incubated in the absence or presence of varying concentrations of compounds at 37° C. for 120 min. For the background correction, only the substrate solution was added without arginase. The urea detection reagent from QuantiChrome™ Urea assay kit (BioAssay Systems, CA) was added to develop the color product. After 60 min at room temperature, the absorbance was measured at 450 nm with CLARIOstar (BMG LABTECH). Urea was used as the standard.
In general, IC50 refers to the concentration at which inhibition is half-maximal. On to `C[C@@H](N)CNS(=O)(=O)N1C[C@H](CCCB(O)O)[C@](N)(C(=O)O)C1` (racemic) [Example 17, (rac)trans-3-amino-1-(N-((R)-2-aminopropyl)sulfamoyl)-4-(3-boronopropyl)pyrrolidine-3-carboxylic acid (diastereomers), 2,2,2-trifluoroacetic acid salt (1:2) (Diasteromers)], for which the IC50 is below 100 nM. The value for `NC1(CNS(=O)(=O)N2C[C@H](CCCB(O)O)[C@](N)(C(=O)O)C2)CC1` (racemic) [Example 19, (rac)-(trans)3-amino-1-(N-((1-aminocyclopropyl)methyl)sulfamoyl)-4-(3-boronopropyl)pyrrolidine-3-carboxylic acid, 2,2,2-trifluoroacetic acid salt (1:2)] was 100 to 1000 nM. As for `N[C@@H]1CCCCC1NS(=O)(=O)N1C[C@H](CCCB(O)O)[C@](N)(C(=O)O)C1` (mixture of isomers) [Example 20, (rac)trans-3-amino-1-(N-((rac)cis-2-aminocyclohexyl)sulfamoyl)-4-(3-boronopropyl)pyrrolidine-3-carboxylic acid (diastereomers), 2,2,2-trifluoroacetic acid salt (1:2)], the figure is above 10000 nM; as for `NCCCNS(=O)(=O)N1C[C@H](CCCB(O)O)[C@](N)(C(=O)O)C1` (racemic) [Example 21, (rac)-trans-3-amino-1-(N-(3-aminopropyl)sulfamoyl)-4-(3-boronopropyl)pyrrolidine-3-carboxylic acid (diastereomers), 2,2,2-trifluoroacetic acid salt (1:2)], 100 to 1000 nM; as for `N[C@H]1CCCCC1NS(=O)(=O)N1C[C@H](CCCB(O)O)[C@](N)(C(=O)O)C1` (mixture of isomers) [Example 22, (rac)-trans-3-amino-1-(N-(trans-2-aminocyclohexyl)sulfamoyl)-4-(3-boronopropyl)pyrrolidine-3-carboxylic acid (diastereomers), 2,2,2-trifluoroacetic acid salt (1:2)], 100 to 1000 nM. As for `N[C@H]1COCC1NS(=O)(=O)N1C[C@H](CCCB(O)O)[C@](N)(C(=O)O)C1` (mixture of isomers) [Example 23, (rac)-trans-3-amino-1-(N-((rac)cis-4-aminotetrahydrofuran-3-yl)sulfamoyl)-4-(3-boronopropyl)pyrrolidine-3-carboxylic acid (diastereomers), 2,2,2-trifluoroacetic acid salt (1:2)], the figure is 100 to 1000 nM; as for `NC1CC(NS(=O)(=O)N2C[C@H](CCCB(O)O)[C@](N)(C(=O)O)C2)C1` (mixture of isomers) [Example 24, (rac)-trans-3-amino-1-(N-((rac)trans-3-aminocyclobutyl)sulfamoyl)-4-(3-boronopropyl)pyrrolidine-3-carboxylic acid compound with 2,2,2-trifluoroacetic acid (1:2)], below 100 nM. In the case of `NC1CN(S(=O)(=O)N2C[C@H](CCCB(O)O)[C@](N)(C(=O)O)C2)C1` (racemic) [Example 33, (rac)-trans-3-amino-1-((3-aminoazetidin-1-yl)sulfonyl)-4-(3-boronopropyl)pyrrolidine-3-carboxylic acid, 2,2,2-trifluoroacetic acid salt (1:2)], the IC50 lay within 100 to 1000 nM. The value for `N[C@@]1(C(=O)O)CN(S(=O)(=O)NC2CNC2)C[C@@H]1CCCB(O)O` (racemic) [Example 34, (rac)-trans-3-amino-1-(N-(azetidin-3-yl)sulfamoyl)-4-(3-boronopropyl)pyrrolidine-3-carboxylic acid, 2,2,2-trifluoroacetic acid salt (1:2)] was below 100 nM; that for `C[C@@H](N)C(=O)NS(=O)(=O)N1C[C@H](CCCB(O)O)[C@](N)(C(=O)O)C1` (racemic) [Example 35, (rac)-trans-1-(N-alanylsulfamoyl)-3-amino-4-(3-boronopropyl)pyrrolidine-3-carboxylic acid, 2,2,2-trifluoroacetic acid salt (1:2)] was 100 to 1000 nM; that for `CC1(C)[C@H]2C[C@@H]3OB(CCC[C@H]4CN(S(=O)(=O)NCCN)C[C@@]4(N)C(=O)O)O[C@]3(C)[C@@H]1C2` (racemic) [Example 36] was below 100 nM. For the compound `N=C(NC(=O)CN)N1C[C@H](CCCB(O)O)[C@](N)(C(=O)O)C1` (racemic) [Example 38, rac-(trans)-3-amino-4-(3-boronopropyl)-1-(N-glycylcarbamimidoyl)pyrrolidine-3-carboxylic acid, 2,2,2-trifluoroacetic acid salt (1:2)], the half-maximal inhibitory concentration (IC50) lay within 100 to 1000 nM. The value for `NC1(CNS(=O)(=O)N2C[C@H](CCCB(O)O)[C@](N)(C(=O)O)C2)COC1` (racemic) [Example 39, (rac)-trans-3-amino-1-(N-((3-aminooxetan-3-yl)methyl)sulfamoyl)-4-(3-boronopropyl)pyrrolidine-3-carboxylic acid, 2,2,2-trifluoroacetic acid salt (1:2)] was 100 to 1000 nM. On to `NC1COCC1NS(=O)(=O)N1CC(CCCB(O)O)C(N)(C(=O)O)C1` (racemic) [Example 41, (rac)-trans-3-amino-1-(N-((trans)-4-aminotetrahydrofuran-3-yl)sulfamoyl)-4-(3-boronopropyl)pyrrolidine-3-carboxylic acid, 2,2,2-trifluoroacetic acid salt (1:2)], for which the IC50 fell in the range of 100 to 1000 nM. On to `CN(C1CNC1)S(=O)(=O)N1C[C@H](CCCB(O)O)[C@](N)(C(=O)O)C1` (racemic) [Example 42, (rac)-trans-3-amino-1-(N-(azetidin-3-yl)-N-methylsulfamoyl)-4-(3-boronopropyl)pyrrolidine-3-carboxylic acid, 2,2,2-trifluoroacetic acid salt (1:2)], for which the IC50 is below 100 nM. The value for `CC1(NS(=O)(=O)N2C[C@H](CCCB(O)O)[C@](N)(C(=O)O)C2)CNC1` (racemic) [Example 43, (rac)-trans-3-amino-4-(3-boronopropyl)-1-(N-(3-methylazetidin-3-yl)sulfamoyl)pyrrolidine-3-carboxylic acid, 2,2,2-trifluoroacetic acid salt (1:2)] was 100 to 1000 nM; that for `CN1CCN(S(=O)(=O)N2C[C@H](CCCB(O)O)[C@](N)(C(=O)O)C2)CC1` (racemic) [Example 44, (racemic)-trans-3-amino-4-(3-boronopropyl)-1-((4-methylpiperazin-1-yl)sulfonyl)pyrrolidine-3-carboxylic acid, 2,2,2-trifluoroacetic acid salt (1:2)] was 100 to 1000 nM. The value for `CN(C)CCN(C)S(=O)(=O)N1C[C@H](CCCB(O)O)[C@](N)(C(=O)O)C1` (racemic) [Example 45, (racemic)-trans-3-amino-4-(3-boronopropyl)-1-(N-(2-(dimethylamino)ethyl)-N-methylsulfamoyl)pyrrolidine-3-carboxylic acid, 2,2,2-trifluoroacetic acid salt (1:2)] was 100 to 1000 nM.

Turning to `CNCCNS(=O)(=O)N1C[C@H](CCCB(O)O)[C@](N)(C(=O)O)C1` (racemic) [Example 46, (racemic)-trans-3-amino-4-(3-boronopropyl)-1-(N-(2-(methylamino)ethyl)sulfamoyl)pyrrolidine-3-carboxylic acid, 2,2,2-trifluoroacetic acid salt (1:2)], the IC50 is 100 to 1000 nM. As for `CNCCN(C)S(=O)(=O)N1C[C@H](CCCB(O)O)[C@](N)(C(=O)O)C1` (racemic) [Example 47, (racemic)-trans-3-amino-4-(3-boronopropyl)-1-(N-methyl-N-(2-(methylamino)ethyl)sulfamoyl)pyrrolidine-3-carboxylic acid, 2,2,2-trifluoroacetic acid salt (1:2)], the figure is below 100 nM; as for `CC(C)(N)C(C)(C)NS(=O)(=O)N1C[C@H](CCCB(O)O)[C@](N)(C(=O)O)C1` (racemic) [Example 50, (racemic)-trans-3-amino-1-(N-(3-amino-2,3-dimethylbutan-2-yl)sulfamoyl)-4-(3-boronopropyl)pyrrolidine-3-carboxylic acid, 2,2,2-trifluoroacetic acid salt (1:2)], 100 to 1000 nM. As for `N=C(N)NC(=O)N1C[C@H](CCCB(O)O)[C@](N)(C(=O)O)C1` (racemic) [Example 51, (racemic)-trans-3-amino-4-(3-boronopropyl)-1-(carbamimidoylcarbamoyl)pyrrolidine-3-carboxylic acid, 2,2,2-trifluoroacetic acid salt (1:2)], the IC50 was in the range of 100 to 1000 nM. As for `CCN(C1CNC1)S(=O)(=O)N1C[C@H](CCCB(O)O)[C@](N)(C(=O)O)C1` (racemic) [Example 52, (racemic)-trans-3-amino-1-(N-(azetidin-3-yl)-N-ethylsulfamoyl)-4-(3-boronopropyl)pyrrolidine-3-carboxylic acid 2,2,2-trifluoroacetic acid salt (1:2)], the figure is below 100 nM; as for `NC(=O)NS(=O)(=O)N1C[C@H](CCCB(O)O)[C@](N)(C(=O)O)C1` (racemic) [Example 53, (racemic)-trans-3-amino-4-(3-boronopropyl)-1-(N-carbamoylsulfamoyl)pyrrolidine-3-carboxylic acid 2,2,2-trifluoroacetic acid salt (1:2)], 1000 to 10000 nM; as for `N=C(N)NCCNS(=O)(=O)N1C[C@H](CCCB(O)O)[C@](N)(C(=O)O)C1` (racemic) [Example 54, (racemic)-trans-3-amino-4-(3-boronopropyl)-1-(N-(2-guanidinoethyl)sulfamoyl)pyrrolidine-3-carboxylic acid, 2,2,2-trifluoroacetic acid salt (1:2)], 100 to 1000 nM. For the compound `COC(=O)[C@@H](N)CNS(=O)(=O)N1C[C@H](CCCB(O)O)[C@](N)(C(=O)O)C1` (racemic) [Example 55], the IC50 was below 100 nM. As for `N[C@@H](CNS(=O)(=O)N1C[C@H](CCCB(O)O)[C@](N)(C(=O)O)C1)C(=O)O` (racemic) [Example 56], the figure is 100 to 1000 nM.

Values taken from US20220251116A1, “ALKYLBORONIC ACIDS AS ARGINASE INHIBITORS” (Guangdong Newopp Biopharmaceuticals Co., Ltd., priority 2019, published 2022).
